The record followed here is patent US11078228B2, “Ectonucleotidase inhibitors and methods of use thereof” (Calithera Biosciences, Inc., priority 2018, dated 2021).

Like-named read-outs stand apart in the source and are kept apart here.

In data set [1] the target is T1, recombinant CD73 (Homo sapiens (Human), UniProt P21589). The data set can be described thus: Assay 2: Inhibition of the CD73 enzyme in vitro (0.05 nM CD73, 1 hour 37° C., Malachite Green). It counts as biochemical. Particulars: 0.05 nM CD73, 50 μM AMP, 1 hour at 37° C. The method, boiled down: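 Soluble recombinant CD73 reactions ran 1 hour at 37° C. Malachite Green was then added, and absorbance at 630 nm was read after 5 min at room temperature. Inorganic phosphate was quantified from a phosphate standard curve.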
Target sequence in this assay (P21589 27-547): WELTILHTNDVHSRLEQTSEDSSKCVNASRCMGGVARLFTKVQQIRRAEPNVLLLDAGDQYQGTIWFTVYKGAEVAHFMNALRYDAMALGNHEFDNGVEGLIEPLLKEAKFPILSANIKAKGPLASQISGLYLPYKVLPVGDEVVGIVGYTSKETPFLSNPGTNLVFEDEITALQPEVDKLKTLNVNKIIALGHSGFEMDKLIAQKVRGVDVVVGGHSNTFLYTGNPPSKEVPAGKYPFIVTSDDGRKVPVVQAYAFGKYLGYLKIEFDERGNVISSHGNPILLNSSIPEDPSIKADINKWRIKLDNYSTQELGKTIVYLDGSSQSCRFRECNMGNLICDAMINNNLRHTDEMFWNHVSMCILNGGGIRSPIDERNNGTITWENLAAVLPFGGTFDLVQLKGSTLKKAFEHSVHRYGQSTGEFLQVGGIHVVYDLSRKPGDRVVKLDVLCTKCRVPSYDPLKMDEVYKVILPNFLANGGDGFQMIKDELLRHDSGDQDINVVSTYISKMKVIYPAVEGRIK

For a further data set, the system named is EG7 tumors. The data set can be described thus: Tumor-directed immune response: flow cytometry of excised EG7 tumors. It counts as in vivo, mouse. Particulars: 50 mg/kg orally BID from day one, tumors excised day 14. On the procedure: EG7 cells were implanted subcutaneously into C57BL/6 mice. Compound 9 (50 mg/kg) or vehicle was orally administered BID starting day one post implant (N=10 per group). Tumors were excised on day 14 and analyzed by flow cytometry. Compound 9 increased the % CD8+ cells of CD45+ cells as shown in FIG. 1A (* indicates p<0.05). EG7 cells were implanted subcutaneously into C57BL/6 mice. Anti-CD8 antibody was dosed i.p. on days −1, 0, 5, and 10. Compound 9 (50 mg/kg) or vehicle was orally dosed BID starting on day 1.
In general terms: Flow cytometry measures light scatter and fluorescence of single cells or particles in a stream.

Another data set relates to Human CD8+ T cells. In words: Reversal of AMP-mediated suppression of CD8+ T cells. It counts as cell-based. Conditions: T-cell, 96 h, 4 days. The procedure:
Human CD8+ T cells were labeled with CellTrace CFSE and then pre-incubated with an adenosine deaminase inhibitor and Compound 9 or vehicle for 20 minutes. 20 μM AMP was added for assessing T cell proliferation and CD25 expression. 10 μM AMP was added for assessing cytokine production. T cells were activated with α-CD3, α-CD28, and hIL2. After 4 days, proliferation and CD25 expression were assessed by flow cytometry and cytokine levels in the supernatant were measured by ELISA. EC50s were determined using a four-parameter dose-response curve equation.

The next data set concerns the target human CD39 (Homo sapiens (Human), UniProt P49961). The data set can be described thus: Cell surface CD39 activity, K562 cells expressing human CD39, Kinase-Glo. In kind it is cell-based. The procedure: (§1) Using Compound 9, the activity of cell surface CD39 was assessed using K562 cells expressing human CD39 and Kinase-Glo. Activity of recombinant human ENTPD2 and ENTPD3 was assessed using a malachite green assay. […] Compound 9 was screened in the Eurofins Safety Screen Panel and the Eurofins Express Diversity Kinase Profile Panel. In the Safety Panel, 1/87 targets were inhibited at >50% at 10 μM of Compound 9. The PDE3 enzyme was inhibited at 59%.

For another data set, the target named is recombinant human ENTPD2 (Homo sapiens (Human), UniProt Q9Y5L3). The data set can be described thus: Recombinant human ENTPD2 malachite green assay. It counts as biochemical. On the procedure: as §1
recombinant human ENTPD2, sequence (Q9Y5L3 whole entry): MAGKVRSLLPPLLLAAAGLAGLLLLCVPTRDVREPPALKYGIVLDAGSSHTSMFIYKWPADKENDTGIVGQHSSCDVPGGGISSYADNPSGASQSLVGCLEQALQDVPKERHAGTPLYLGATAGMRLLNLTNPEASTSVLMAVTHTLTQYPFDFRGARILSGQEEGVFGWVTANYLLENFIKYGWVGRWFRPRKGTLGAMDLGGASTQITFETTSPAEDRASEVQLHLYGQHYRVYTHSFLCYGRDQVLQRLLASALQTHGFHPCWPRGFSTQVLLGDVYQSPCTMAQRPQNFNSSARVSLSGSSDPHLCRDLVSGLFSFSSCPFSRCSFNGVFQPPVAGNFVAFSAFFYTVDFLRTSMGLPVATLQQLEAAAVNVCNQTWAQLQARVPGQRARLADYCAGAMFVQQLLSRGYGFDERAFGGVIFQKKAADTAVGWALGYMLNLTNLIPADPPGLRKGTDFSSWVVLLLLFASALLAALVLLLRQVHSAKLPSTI
For a further data set, the target named is recombinant human ENTPD3 (Homo sapiens (Human), UniProt O75355). The data set can be described thus: Recombinant human ENTPD3 malachite green assay. In kind it is biochemical. On the procedure:
as §1

For data set [2], the system named is Eurofins Safety Screen Panel (87 targets). In words: Eurofins Safety Screen Panel. Particulars: 10 μM. On the procedure:
as §1

Another data set deals with PDE3 enzyme. The data set can be described thus: Eurofins Safety Screen Panel: PDE3. It counts as biochemical. Conditions: 10 μM. On the procedure:
as §1

For the next data set, the system named is EG7 cells. In words: Viability of EG7 cells, CellTiter-Glo. In kind it is cell-based, mouse. Particulars: 100 μM, 3 days. On the procedure:
Viability of EG7 and A375 cells treated with 100 μM Compound 9 was measured using CellTiter-Glo after 3 days. Proliferation of human CD8+ T cells was measured by flow cytometry after 4 days of treatment with 100 μM Compound 9 using CellTrace CFSE Cell Proliferation Kit.
On the technique in general: Cellular ATP, detected with luciferase, serves as a proxy for viable cell number.

Data set [3] addresses T1, recombinant CD73. In words: Potency against recombinant CD73, malachite green assay. In kind it is biochemical. On the procedure:
(§2) The potency of Compound 9 was evaluated against recombinant CD73 and CD73-expressing SK-MEL-28 cells using a malachite green assay. Inhibition of CD73 in plasma was measured using LC/MS to assess conversion of ^15N5-AMP into ^15N5-ADO. FIG. 4A indicates the nanomolar inhibition of CD73 cells from both human and mouse sources. […] Inhibition of CD73 in plasma was measured using LC/MS to assess conversion of ^15N5-AMP into ^15N5-ADO.
Target sequence in this assay (P21589 27-574): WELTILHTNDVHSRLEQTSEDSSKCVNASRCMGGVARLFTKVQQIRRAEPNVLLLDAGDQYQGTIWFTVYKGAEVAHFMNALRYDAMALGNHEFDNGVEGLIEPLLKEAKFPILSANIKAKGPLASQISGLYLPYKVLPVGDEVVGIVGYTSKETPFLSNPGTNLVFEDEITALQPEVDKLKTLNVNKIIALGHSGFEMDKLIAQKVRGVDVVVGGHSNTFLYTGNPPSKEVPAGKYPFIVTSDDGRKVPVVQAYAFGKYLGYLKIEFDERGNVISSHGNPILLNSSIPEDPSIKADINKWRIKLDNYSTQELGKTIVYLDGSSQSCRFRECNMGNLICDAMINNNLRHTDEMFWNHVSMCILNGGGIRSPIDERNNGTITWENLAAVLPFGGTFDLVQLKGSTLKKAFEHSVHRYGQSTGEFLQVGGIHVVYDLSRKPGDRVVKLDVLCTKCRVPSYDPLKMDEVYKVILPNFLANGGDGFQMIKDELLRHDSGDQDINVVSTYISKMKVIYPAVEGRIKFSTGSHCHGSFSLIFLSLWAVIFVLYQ

Data set [4] concerns the target CD73-expressing SK-MEL-28 cells (Homo sapiens (Human), UniProt P21589). The data set can be described thus: Human CD73 cell surface assay, CD73-expressing SK-MEL-28 cells, malachite green. It counts as cell-based. On the procedure: as §2
The next data set deals with mouse plasma CD73 (Mus musculus (Mouse), UniProt Q61503). In words: Inhibition of CD73 in mouse plasma (IC50). In kind it is biochemical. On the procedure: as §2
mouse plasma CD73, sequence (Q61503 29-576): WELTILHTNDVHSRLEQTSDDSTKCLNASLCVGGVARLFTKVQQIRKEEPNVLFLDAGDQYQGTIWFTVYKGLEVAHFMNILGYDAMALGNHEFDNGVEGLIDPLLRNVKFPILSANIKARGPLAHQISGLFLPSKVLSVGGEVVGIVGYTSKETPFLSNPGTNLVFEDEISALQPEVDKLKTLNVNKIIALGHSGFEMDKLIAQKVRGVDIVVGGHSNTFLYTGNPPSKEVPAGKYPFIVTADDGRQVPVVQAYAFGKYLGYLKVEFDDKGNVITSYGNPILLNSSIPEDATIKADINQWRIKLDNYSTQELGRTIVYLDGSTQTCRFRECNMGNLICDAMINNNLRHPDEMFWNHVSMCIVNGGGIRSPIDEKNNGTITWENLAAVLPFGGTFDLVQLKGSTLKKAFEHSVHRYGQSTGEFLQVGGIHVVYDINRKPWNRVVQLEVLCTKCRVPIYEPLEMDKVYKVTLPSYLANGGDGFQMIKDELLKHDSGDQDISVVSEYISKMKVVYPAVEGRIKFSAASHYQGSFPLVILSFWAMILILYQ
Single dose Compound 9 (50 mg/kg) was administered orally to mice and plasma was collected at indicated time points. Compound 9 levels were measured by LC/MS. Plasma was harvested from mice 2 hours post dose and spiked with ^15N5-AMP and a TNAP inhibitor. ^15N5-ADO levels were measured by LC/MS.

CD73-expressing SK-MEL-28 cells, sequence (P21589 27-574): as the sequence (P21589 27-574) above
human CD39, sequence (P49961 whole entry): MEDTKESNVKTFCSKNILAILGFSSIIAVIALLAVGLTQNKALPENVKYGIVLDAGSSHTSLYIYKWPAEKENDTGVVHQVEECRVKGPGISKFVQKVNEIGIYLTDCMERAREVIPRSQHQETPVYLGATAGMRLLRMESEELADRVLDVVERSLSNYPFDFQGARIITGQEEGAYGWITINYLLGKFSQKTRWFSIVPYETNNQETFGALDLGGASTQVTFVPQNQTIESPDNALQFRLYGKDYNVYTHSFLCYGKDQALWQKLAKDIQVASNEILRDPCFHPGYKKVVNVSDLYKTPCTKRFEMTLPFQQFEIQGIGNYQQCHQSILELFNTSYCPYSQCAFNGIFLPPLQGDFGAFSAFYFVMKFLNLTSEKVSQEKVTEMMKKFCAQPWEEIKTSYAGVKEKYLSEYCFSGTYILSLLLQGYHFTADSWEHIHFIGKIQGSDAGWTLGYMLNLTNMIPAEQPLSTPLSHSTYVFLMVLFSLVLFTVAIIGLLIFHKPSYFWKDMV
recombinant human ENTPD3, sequence (O75355 whole entry): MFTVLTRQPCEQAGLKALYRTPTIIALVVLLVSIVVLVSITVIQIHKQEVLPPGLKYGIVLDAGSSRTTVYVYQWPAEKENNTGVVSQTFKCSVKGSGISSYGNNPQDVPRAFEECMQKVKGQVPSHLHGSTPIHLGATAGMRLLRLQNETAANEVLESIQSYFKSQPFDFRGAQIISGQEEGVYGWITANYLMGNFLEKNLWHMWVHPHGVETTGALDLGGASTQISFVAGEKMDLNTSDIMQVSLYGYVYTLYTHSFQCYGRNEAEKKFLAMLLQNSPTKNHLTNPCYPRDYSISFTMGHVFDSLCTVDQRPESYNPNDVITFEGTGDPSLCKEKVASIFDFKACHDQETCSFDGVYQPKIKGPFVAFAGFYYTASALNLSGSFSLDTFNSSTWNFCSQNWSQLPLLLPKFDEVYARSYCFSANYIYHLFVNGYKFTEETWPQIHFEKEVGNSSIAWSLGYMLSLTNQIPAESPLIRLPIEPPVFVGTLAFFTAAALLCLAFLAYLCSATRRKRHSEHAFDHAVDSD

For orientation: IC50 means the midpoint of a concentration-inhibition curve. As for `C#C[C@@]1(O)[C@@H](COC(Cc2ccc(N3CCCNC3=O)cc2)(C(=O)O)C(=O)O)O[C@@H](n2cnc3c(N)nc(Cl)nc32)[C@@H]1O` [Compound 9, 2-(((2R,3S,4R,5R)-5-(6-amino-2-chloro-9H-purin-9-yl)-3-ethynyl-3,4-dihydroxytetrahydrofuran-2-yl)methoxy)-2-(4-(2-oxotetrahydropyrimidin-1 (2H)-yl)benzyl)malonic acid], the concentration for half-maximal inhibition (IC50) was 0.17 nM at recombinant CD73 [1]; over 10 µM against human CD39; over 10 µM on recombinant human ENTPD2; over 10 µM on recombinant human ENTPD3; 0.17 nM on recombinant CD73 [3]; 0.21 nM in data set [4]. The compound also yielded an IC50 on mouse plasma CD73 of 1 nM. Besides, the “% CD8+ cells of CD45+ cells” value with EG7 tumors is recorded as “increased”. Also, the EC50 worked out at 5.6 nM in the data set with Human CD8+ T cells (10 μM AMP, ELISA, read-out: EC50 for Granzyme B production); 4.5 nM in the data set on Human CD8+ T cells (10 μM AMP, ELISA, read-out: EC50 for IFNγ production); 9.6 nM in the data set with Human CD8+ T cells (20 μM AMP, flow cytometry, read-out: EC50 for CD8+ T cell activation (CD25 expression)); 11.6 nM in the data set on Human CD8+ T cells (20 μM AMP, flow cytometry, read-out: EC50 for CD8+ T cell proliferation). Also, the “Safety Panel targets inhibited at >50%” value in [2] is recorded as 1/87. For the same compound, in the data set on PDE3 enzyme, the PDE3 enzyme inhibition is listed as 59%. Also, the “% cell survival of EG7 cells” value in the data set with EG7 cells was “comparable % cell survival”.
